Results from US6593365B1, “Diflunisal esters and related compounds” (The University of Queensland, priority 1997, dated 2003).
Several values for one entry are separate records, joined by “and”; a condition that tells them apart may be missing. Identical values can stand only once. Marks after values point to notes of the source that are not given here.

What was measured:
[1] = Intrinsic (maximum) solubility in water at pH 1.5; assay type: physicochemical; details: for solubility: 25 °C, pH 1.5, simulated gastric fluid
Description: The pH conditions were chosen to ensure that the solubility of the unionised species was estimated. […] Lea & Febiger/Philadelphia. […] […] The solvent (9.9 mL) was then added to the test tube. […] The test tube was sonicated for 15 minutes and centrifuged for 10 minutes (3000 g at 25° C.). An aliquot was filtered (Minisart 0.45 μm filter, Satorius) and diluted with HPLC mobile phase, then assayed. The tube was stored carefully in a 25° C. water bath after sampling and the remaining suspension was again sonicated and the process repeated 7 times at four hourly intervals. In these assays, standard curves were prepared by directly dissolving the esters in mobile phase. Concentrations for standard curves ranged from 1-50 μg/mL for all compounds. Furthermore, a manual injector (Waters Model U6K) was used (20 μL sample loop) which ensured that 20 μL was consistently injected onto the column and precluded the need for an internal standard.

[2] = test system: in-situ perfused rat liver; test: In-situ rat liver perfusion bolus studies, moments and dispersion model analysis (Example 3); assay type: in vitro ADME, Sprague-Dawley rats; details: n = 3, Mean S.E.; for RN (efficiency number) / a (dispersion model): determined using equation 5 & 6; for CV^2 (normalized variance) / F (hepatic availability) / MTT (mean transit time): moments analysis, bolus, 30 mL/min; for CV^2 (normalized variance) / F (hepatic availability) / MTT (mean transit time) / Efflux rate coefficient (k2) / Elimination rate coefficient (kel) / Influx rate coefficient (k1): 2% BSA perfusate; for Efflux rate coefficient (k2) / Elimination rate coefficient (kel) / Influx rate coefficient (k1): two-compartment dispersion model fitting
Description: Mature female Sprague-Dawley rats were obtained from the University of Queensland Animal Breeding Facility and weighed between 180-270 grams. The animals were given access to a standard laboratory diet prior to experiment. Rats were anaesthetised by interperitoneal injection of pentobarbital sodium (60 mg/kg, Boehringer Ingelhein). […] The bile duct was cannulated with PE10 (Clay Adams, New Jersey). 0.025 gm/L taurocholic acid (Sigma Co., USA.) was dissolved in perfusate to stimulate bile production. The portal vein was then cannulated using a 16 G intravenous catheter and the liver was perfused via this cannula with 2% BSA Krebs-Henseleit bicarbonate buffer (pH 7.4) and oxygenated using a silastic tubing lung ventilated with carbogen (95% O2/5% CO2). The perfusion system used was non-recirculating and employed a peristaltic pump (Cole-Parmer, Illinois).
The animal was placed in a temperature controlled perfusion cabinet at 37° C. Liver viability was assessed by oxygen consumption, bile flow, diflunisal esters' extraction and macroscopic appearance.
Perfusions were made at 30 mL/min in each liver. After a 10 minute perfusion stabilization period, injectate (50 μL) containing Evans Blue (3 mg/mL) and [^3H]-water in a saturated solution of the particular O-acyl diflunisal ester or pregenerated diflunisal (which was injected as parent compound) in 2% BSA Krebs-Henseleit buffer, was injected into the liver with outlet samples collected via a fraction collector over one minute.
Aliquots (100 μL) of pooled perfusate samples were taken for Evans Blue spectrophotometric analysis and [^3H]-water scintillation counting before adjusting pH. These pooled samples were then acidified to pH 2.0 by addition of 1 M HCl and extracted into 2.5 volumes of ether. […] The ether fraction was then removed and reduced to approximately 100 μL by evaporation under air and prepared as before for HPLC analysis. A known concentration of each buffer solution of ester was concurrently extracted and assayed with the perfusate samples to assess the degree of spontaneous hydrolysis occurring over the duration of the extraction procedure. This non-enzymatic hydrolysis was converted for in the analysis. The total recovery of diflunisal esters extracted using this technique was >90%.
The F, MTT and CV^2 for the diflunisal esters (or pregenerated DF) and the reference solutes (EB and [^3H]-water) were determined from the outflow concentration versus time profile using equation (1)-(4), with the assistance of the Moments Calculator 2.2 program for Macintosh computer developed by Robert Purves (Purves RD, 1994, J. Pharm. Sci. 83 202-205). [formula] [formula]
where Q is the perfusate flow rate, D is the dose of diflunisal esters administered. The area under the concentration-time curve (AUC) and the first moment curve (AUMC) were estimated by the trapezoidal rule integration with appropriate modification for tail (Mellick et al., 1996, submitted for publication). [formula]
The moment data was further examined using the dispersion model of hepatic elimination which defines F of an extracted solute by the equation (Roberts et al., 1990, J. Pharmacokin. Biopharm. 18 209-234): [formula]
a={square root over (1+4RNDN)} (6)
DN is the dispersion number which describes the spread of solute residence times in the liver following bolus input and equal half the normalized variance for a non-extracted reference indicator [formula]
RN is the efficiency number which characterises the elimination of solute by the liver and is defined by the equation: [formula]
(Gillette, 1971, Ann. N. Acad. Sci. 179 43-61)), and Q is the perfusate flow rate. If F for a solute and the CV^2 for a non-extracted reference solute (eg. EB) are known, we can solve for “a” using equation (5) and then for “RN” using equation (6).
The dispersion model expressions (Roberts et al., 1990) for MTT and CV^2 are presented in equations (8) and (9). [formula] [formula] […]

[3] = biological target: T1, BSA (bovine serum albumin) (Bos taurus, UniProt P02769); details: 2% BSA; Hung et al., 1996; cited from earlier work
T1 construct: BSA (bovine serum albumin, fraction V, Sigma); purchased Sigma; host or cells: bovine serum (fraction V)
T1 sequence (P02769 25-607): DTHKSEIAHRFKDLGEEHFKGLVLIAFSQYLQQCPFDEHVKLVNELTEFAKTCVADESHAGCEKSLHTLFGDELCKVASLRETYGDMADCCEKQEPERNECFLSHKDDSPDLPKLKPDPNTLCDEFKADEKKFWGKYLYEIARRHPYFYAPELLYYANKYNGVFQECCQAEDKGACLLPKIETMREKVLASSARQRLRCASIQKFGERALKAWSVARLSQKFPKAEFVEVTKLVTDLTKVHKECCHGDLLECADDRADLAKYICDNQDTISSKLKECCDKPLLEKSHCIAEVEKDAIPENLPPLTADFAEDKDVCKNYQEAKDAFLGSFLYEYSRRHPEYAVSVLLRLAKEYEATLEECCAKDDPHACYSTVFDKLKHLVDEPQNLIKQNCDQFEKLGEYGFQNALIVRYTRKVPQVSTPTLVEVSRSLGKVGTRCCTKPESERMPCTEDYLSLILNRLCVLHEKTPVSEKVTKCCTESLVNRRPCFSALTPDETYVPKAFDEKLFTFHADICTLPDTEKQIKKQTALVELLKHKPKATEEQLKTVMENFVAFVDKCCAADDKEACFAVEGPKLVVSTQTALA

Maximum solubility ([1]; water at pH 1.5, 25 1° C., U = Undetectable) | RN (efficiency number) [2] | a (dispersion model) [2] | CV^2 (normalized variance) [2] | F (hepatic availability) [2] | MTT (mean transit time) [2] | RN/fub (removal of unbound solute) [2] | RN/fub (removal of unbound solute) ([2]; listed as acetyl) | Efflux rate coefficient (k2) [2] | Elimination rate coefficient (kel) [2] | Influx rate coefficient (k1) [2] | solubility [1] | RN/fub (removal of unbound solute) ([2]; listed as hexanoyl) | SMILES | fub (unbound fraction) [3]
0.03 mM | 2.58 ± 0.02 | 2.26 ± 0.02^c | 0.70 ± 0.19 | 0.21 ± 0.03 | 10.36 ± 2.31 s | 9.57 ± 0.37 | 9.57 | 0.25 ± 0.03 s⁻¹ | 0.18 ± 0.02 s⁻¹ | 1.20 ± 0.11 s⁻¹ | – | – | CC(=O)Oc1ccc(-c2ccc(F)cc2F)cc1C(=O)O [Compound C2D, acetyldiflunisal] | 0.27 ± 0.02
– | 1.56 ± 0.02 | 1.87 ± 0.01 | 1.01 ± 0.18 | 0.34 ± 0.01 | 7.73 ± 0.99 s | 11.17 ± 0.38 | – | 0.08 ± 0.04 s⁻¹ | 0.16 ± 0.07 s⁻¹ | 0.41 ± 0.12 s⁻¹ | – | – | CCCC(=O)Oc1ccc(-c2ccc(F)cc2F)cc1C(=O)O [Compound C4D, n-butanoyldiflunisal] | 0.14 ± 0.01
– | – | – | – | – | – | – | – | – | – | – | 570 µg/mL and 2700 µM | – | CCCC(=O)Oc1ccccc1C(=O)O [Compound C4SA, n-butanoylsalicylic acid] | –
– | 1.32 ± 0.03 | 1.77 ± 0.02 | 1.02 ± 0.33 | 0.38 ± 0.02 | 6.62 ± 0.84 s | 11.04 ± 0.39 | – | 0.14 ± 0.07 s⁻¹ | 0.18 ± 0.06 s⁻¹ | 0.51 ± 0.16 s⁻¹ | – | – | CCCCC(=O)Oc1ccc(-c2ccc(F)cc2F)cc1C(=O)O [Compound C5D, n-pentanoyldiflunisal] | 0.12 ± 0.01
– | – | – | – | – | – | – | – | – | – | – | 74 µg/mL and 330 µM | – | CCCCC(=O)Oc1ccccc1C(=O)O [Compound C5SA, n-pentanoylsalicylic acid] | –
– | 1.32 ± 0.03 | 1.77 ± 0.03 | 1.15 ± 0.48 | 0.38 ± 0.04 | 6.19 ± 0.95 s | 16.50 ± 0.22 | – | 0.06 ± 0.03 s⁻¹ | 0.15 ± 0.03 s⁻¹ | 0.63 ± 0.24 s⁻¹ | – | 16.50 | CCCCCC(=O)Oc1ccc(-c2ccc(F)cc2F)cc1C(=O)O [Compound C6D, n-hexanoyldiflunisal] | 0.08 ± 0.00
– | – | – | – | – | – | – | – | – | – | – | 19 µg/mL and 80 µM | – | CCCCCC(=O)Oc1ccccc1C(=O)O [Compound C6SA, n-hexanoylsalicylic acid] | –

SMILES | Maximum solubility ([1]; water at pH 1.5, 25 1° C., U = Undetectable) | RN (efficiency number) [2] | a (dispersion model) [2] | CV^2 (normalized variance) [2] | F (hepatic availability) [2] | MTT (mean transit time) [2] | RN/fub (removal of unbound solute) [2] | RN/fub (removal of unbound solute) ([2]; listed as acetyl) | Efflux rate coefficient (k2) [2] | Elimination rate coefficient (kel) [2] | Influx rate coefficient (k1) [2] | solubility [1] | RN/fub (removal of unbound solute) ([2]; listed as hexanoyl) | fub (unbound fraction) [3]
O=C(O)c1cc(-c2ccc(F)cc2F)ccc1O [DF, 2′,4′-difluoro-4-hydroxy-3-biphenylcarboxylic acid, reference compound] | – | – | 1.33 ± 0.01 | 0.99 ± 0.27 | – | 6.80 ± 0.94 s | 9.51 ± 0.18 | – | 0.02 ± 0.01 s⁻¹ | 0.06 ± 0.01 s⁻¹ | 0.18 ± 0.03^b sec^−1 | – | – | –
